The text below walks through data of publication PMC7316778 (Nature Communications, 2020).

“And” between values parts separate entries of the source, which are not always exact repeats. Equal entries are not always repeated. Where two headings read alike, the source gives them in different places.

Targets include AMPK A1/B1/G1 (Homo sapiens, UniProt Q13131); PI4KB (PI4K beta) (Homo sapiens, UniProt Q9UBF8); SPHK2 (Homo sapiens, UniProt Q9NRA0).
Common to all, as to test: SelectScreen kinase assay
A further experiment deals with T1, PRKD1 (PKC mu) (Homo sapiens, UniProt Q15139).
T1 sequence (Q15139 1-912): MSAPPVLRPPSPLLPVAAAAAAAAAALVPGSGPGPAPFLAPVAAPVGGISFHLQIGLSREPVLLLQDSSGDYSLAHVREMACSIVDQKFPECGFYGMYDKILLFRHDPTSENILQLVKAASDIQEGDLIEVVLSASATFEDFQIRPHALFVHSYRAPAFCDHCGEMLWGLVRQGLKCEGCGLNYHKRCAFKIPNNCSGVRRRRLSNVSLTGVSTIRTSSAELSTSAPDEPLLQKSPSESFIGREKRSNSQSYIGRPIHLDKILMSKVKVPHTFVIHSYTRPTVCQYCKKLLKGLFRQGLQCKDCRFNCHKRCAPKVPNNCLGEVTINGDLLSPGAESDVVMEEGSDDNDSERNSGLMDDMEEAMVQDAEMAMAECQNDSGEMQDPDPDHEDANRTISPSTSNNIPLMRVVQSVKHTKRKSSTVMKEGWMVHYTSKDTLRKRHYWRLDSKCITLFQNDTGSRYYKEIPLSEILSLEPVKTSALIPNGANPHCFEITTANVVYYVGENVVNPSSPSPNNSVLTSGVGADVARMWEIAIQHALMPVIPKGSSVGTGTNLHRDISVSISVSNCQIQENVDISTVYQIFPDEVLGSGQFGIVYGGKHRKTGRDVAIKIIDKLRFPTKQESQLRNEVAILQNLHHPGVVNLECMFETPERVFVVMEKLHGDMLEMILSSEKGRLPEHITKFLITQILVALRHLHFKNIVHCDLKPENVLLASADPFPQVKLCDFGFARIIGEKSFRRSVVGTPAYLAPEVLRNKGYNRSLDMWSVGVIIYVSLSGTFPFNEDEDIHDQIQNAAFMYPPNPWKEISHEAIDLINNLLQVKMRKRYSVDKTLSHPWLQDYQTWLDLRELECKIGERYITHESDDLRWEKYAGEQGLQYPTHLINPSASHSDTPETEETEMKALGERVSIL

For another experiment, the target named is T2, BMPR2 (Homo sapiens, UniProt Q13873).
T2 sequence (Q13873 27-1038): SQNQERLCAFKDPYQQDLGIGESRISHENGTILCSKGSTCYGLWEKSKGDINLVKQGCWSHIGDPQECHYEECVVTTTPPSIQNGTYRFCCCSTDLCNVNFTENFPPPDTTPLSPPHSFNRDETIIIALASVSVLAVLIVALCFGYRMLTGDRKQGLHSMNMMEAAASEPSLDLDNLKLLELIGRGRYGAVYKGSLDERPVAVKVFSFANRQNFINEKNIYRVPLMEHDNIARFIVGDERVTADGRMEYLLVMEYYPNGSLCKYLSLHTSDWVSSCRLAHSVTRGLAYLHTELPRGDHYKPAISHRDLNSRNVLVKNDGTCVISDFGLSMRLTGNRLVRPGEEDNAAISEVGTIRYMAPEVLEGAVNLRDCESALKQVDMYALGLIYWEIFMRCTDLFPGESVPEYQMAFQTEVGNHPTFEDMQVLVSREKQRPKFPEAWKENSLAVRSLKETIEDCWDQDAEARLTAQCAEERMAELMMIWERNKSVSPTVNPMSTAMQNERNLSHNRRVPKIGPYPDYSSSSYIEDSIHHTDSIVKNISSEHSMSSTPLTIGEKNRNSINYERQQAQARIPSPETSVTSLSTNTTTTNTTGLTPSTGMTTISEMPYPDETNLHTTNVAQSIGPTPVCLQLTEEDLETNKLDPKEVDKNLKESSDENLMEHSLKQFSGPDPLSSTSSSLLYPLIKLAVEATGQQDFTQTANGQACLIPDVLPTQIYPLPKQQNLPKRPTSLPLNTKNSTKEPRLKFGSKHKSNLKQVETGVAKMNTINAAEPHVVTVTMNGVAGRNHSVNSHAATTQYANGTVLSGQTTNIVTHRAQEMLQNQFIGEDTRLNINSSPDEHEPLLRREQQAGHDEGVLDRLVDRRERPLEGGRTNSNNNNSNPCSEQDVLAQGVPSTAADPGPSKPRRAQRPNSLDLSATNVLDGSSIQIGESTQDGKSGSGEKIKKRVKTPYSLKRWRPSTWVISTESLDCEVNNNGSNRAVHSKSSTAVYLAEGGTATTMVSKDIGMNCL

In another experiment the target is T3, IRAK3 (Homo sapiens, UniProt Q9Y616).
T3 sequence (Q9Y616 1-596): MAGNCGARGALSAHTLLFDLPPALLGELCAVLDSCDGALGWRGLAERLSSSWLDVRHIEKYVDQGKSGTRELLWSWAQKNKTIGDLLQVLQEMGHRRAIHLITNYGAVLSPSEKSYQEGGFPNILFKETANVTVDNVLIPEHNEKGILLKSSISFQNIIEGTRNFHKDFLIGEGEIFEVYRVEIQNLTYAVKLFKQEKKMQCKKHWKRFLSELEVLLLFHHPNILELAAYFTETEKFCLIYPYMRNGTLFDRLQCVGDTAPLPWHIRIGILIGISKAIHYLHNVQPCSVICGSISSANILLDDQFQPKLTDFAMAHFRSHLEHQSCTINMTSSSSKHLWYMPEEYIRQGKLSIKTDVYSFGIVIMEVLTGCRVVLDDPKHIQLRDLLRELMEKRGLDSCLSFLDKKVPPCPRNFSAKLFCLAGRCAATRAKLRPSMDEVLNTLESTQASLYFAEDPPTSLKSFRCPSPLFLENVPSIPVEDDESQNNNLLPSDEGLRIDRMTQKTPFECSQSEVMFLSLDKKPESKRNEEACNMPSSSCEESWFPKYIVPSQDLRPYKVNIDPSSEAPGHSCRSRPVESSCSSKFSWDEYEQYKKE

[1] abbreviates: 1 h, 1 μM WEL028, 1 h preincubation.

Sequence of PI4KB (PI4K beta) (Q9UBF8 whole entry): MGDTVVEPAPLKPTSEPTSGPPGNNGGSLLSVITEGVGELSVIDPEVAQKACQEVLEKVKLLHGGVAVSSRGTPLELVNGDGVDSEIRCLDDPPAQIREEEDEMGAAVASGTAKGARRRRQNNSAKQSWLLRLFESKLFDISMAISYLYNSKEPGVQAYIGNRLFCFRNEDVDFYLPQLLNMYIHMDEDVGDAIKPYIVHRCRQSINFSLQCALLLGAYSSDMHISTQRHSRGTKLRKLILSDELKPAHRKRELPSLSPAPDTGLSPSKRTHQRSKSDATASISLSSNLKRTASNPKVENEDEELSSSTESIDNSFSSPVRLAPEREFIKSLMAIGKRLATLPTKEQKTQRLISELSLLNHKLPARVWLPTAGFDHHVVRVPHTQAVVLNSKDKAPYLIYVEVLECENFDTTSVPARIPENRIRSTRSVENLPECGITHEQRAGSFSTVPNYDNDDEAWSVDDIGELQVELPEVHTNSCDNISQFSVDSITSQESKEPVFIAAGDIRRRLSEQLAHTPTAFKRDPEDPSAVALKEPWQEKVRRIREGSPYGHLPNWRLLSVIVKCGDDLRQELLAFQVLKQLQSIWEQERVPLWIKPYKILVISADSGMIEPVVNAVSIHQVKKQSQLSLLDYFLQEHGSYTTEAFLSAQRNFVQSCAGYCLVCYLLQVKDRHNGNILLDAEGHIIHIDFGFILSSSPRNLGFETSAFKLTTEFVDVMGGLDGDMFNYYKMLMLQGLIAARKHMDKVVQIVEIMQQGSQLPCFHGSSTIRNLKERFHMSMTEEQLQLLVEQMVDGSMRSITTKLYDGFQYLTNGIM
Sequence of SPHK2 (Q9NRA0 whole entry): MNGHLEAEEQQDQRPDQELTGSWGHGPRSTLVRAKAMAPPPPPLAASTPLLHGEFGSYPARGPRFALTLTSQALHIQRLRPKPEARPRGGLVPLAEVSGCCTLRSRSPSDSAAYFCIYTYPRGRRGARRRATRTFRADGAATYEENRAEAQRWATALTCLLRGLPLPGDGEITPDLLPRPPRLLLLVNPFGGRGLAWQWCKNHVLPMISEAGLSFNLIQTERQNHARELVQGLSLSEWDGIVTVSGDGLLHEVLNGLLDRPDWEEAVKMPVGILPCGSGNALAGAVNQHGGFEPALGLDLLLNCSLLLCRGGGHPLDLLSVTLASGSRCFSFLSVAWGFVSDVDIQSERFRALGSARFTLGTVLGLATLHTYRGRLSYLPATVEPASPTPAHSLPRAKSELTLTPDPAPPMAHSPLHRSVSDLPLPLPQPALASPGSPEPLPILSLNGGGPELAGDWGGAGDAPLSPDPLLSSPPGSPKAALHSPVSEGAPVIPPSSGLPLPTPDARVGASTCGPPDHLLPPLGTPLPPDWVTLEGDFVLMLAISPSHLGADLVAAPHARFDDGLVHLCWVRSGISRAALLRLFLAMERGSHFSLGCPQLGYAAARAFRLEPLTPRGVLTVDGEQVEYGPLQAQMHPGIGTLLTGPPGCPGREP
Sequence of AMPK A1/B1/G1 (Q13131 whole entry): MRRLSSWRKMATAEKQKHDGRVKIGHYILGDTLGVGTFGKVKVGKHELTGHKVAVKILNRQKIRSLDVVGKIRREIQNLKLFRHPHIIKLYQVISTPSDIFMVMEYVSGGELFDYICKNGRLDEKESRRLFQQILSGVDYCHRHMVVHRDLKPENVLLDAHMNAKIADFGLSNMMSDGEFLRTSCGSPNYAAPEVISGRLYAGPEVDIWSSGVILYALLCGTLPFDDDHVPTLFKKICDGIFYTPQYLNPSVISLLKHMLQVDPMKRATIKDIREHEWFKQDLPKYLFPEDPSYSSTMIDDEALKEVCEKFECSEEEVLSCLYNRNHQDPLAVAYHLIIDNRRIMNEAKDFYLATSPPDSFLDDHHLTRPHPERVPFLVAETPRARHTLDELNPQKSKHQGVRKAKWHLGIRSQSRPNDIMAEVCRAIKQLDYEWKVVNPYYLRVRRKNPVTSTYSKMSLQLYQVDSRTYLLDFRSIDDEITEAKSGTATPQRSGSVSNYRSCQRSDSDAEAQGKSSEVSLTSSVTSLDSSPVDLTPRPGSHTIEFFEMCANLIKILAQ
Sequence of AMPK A1/B1/G1 (Q9Y478 whole entry partner): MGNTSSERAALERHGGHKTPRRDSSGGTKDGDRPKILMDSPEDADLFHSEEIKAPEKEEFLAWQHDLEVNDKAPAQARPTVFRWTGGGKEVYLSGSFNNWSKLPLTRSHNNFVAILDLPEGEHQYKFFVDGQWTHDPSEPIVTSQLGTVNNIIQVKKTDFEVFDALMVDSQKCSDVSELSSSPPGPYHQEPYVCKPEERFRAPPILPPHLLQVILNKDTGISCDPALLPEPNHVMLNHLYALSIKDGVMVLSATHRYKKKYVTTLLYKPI
Sequence of AMPK A1/B1/G1 (P54619 whole entry partner): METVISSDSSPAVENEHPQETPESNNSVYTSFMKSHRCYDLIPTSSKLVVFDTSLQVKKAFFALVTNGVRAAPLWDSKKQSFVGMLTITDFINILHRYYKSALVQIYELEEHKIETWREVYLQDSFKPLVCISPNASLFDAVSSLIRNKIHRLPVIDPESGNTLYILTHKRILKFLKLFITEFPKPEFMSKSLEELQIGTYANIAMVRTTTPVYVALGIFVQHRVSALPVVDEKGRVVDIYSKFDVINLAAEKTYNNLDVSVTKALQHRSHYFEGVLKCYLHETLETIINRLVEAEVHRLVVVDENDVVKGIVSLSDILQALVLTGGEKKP
Experimental for AMPK A1/B1/G1: (§1) Selectivity profiling assays were performed by the Invitrogen SelectScreen™ Services. […] The concentration of ATP was selected to be equal to the KM, unless indicated otherwise.
Experimental for BMPR2: as §1
Experimental for IRAK3: as §1
Experimental for PI4KB (PI4K beta): as §1
Experimental for PRKD1 (PKC mu): as §1
Experimental for SPHK2: as §1

With `C#CCOc1ccc(Nc2ncc(Cl)c(Nc3ccccc3NC(=O)C=C)n2)c(OC)c1` [Compound 6], the inhibition at 1 µM was found to be 13% at AMPK A1/B1/G1 (setting [1]); 11% against PRKD1 (PKC mu) (setting [1]); 12% on PRKD1 (PKC mu) (read-out: Inhibition at 1 µM (%), 1 µM, ZLYTE, ATP Km app); 4% at BMPR2 (read-out: Inhibition at 1 µM (%), BMPR2, 1 µM, LanthaScreen Binding); 34% on PI4KB (PI4K beta) (setting [1]); 30% on PI4KB (PI4K beta) (read-out: Inhibition at 1 µM (%), PI4KB (PI4K beta), 1 µM, Adapta, ATP Km app). Also, the inhibition at 1 µM against IRAK3 (setting [1]) came to 56%; on IRAK3 (read-out: Inhibition at 1 µM (%), IRAK3, 1 µM, LanthaScreen Binding), 55%; at SPHK2 (setting [1]), 3%. Besides, the “Inhibition at 1 µM (%)” value was 21% on AMPK A1/B1/G1 (AMPK A1/B1/G1, 1 µM, ZLYTE, ATP Km app); 9% on PRKD1 (PKC mu) (1 µM, ZLYTE, ATP Km app, listed as WEL028, 1 µM); 2% at BMPR2 (BMPR2, 1 µM, LanthaScreen Binding, listed as WEL028, 1 µM); 37% at PI4KB (PI4K beta) (PI4KB (PI4K beta), 1 µM, Adapta, ATP Km app, listed as WEL028, 1 µM); 58% on IRAK3 (IRAK3, 1 µM, LanthaScreen Binding, listed as WEL028, 1 µM); 5% and 1% on SPHK2 (1 µM, Adapta, ATP 10, listed as WEL028, 1 µM). Besides, the “Inhibition (%)” value on BMPR2 (1 μM WEL028, 1 h preincubation) came out at 3%.
